In the supplement of paper PMC13380429:
± gives the standard deviation of the averaged measurements.

Experiments:
Details in all cases: 72 h
HepG2 [1] = assay: cell viability relative to DMSO; higher = less toxic
Calu-3 [2] = assay: as above
Caco-2 [3] = assay: as above
U2OS [4] = assay: as above
Vero E6 [5] = assay: as above
HepG2 [6] = assay: drug sensitivity score (DSS) for viability; higher = more toxic; extreme values may be limits of the assay
Calu-3 [7] = assay: as above
Caco-2 [8] = assay: as above
U2OS [9] = assay: as above
Vero E6 [10] = assay: as above
HepG2 [11] = assay: relative viability EC50 (midpoint between 100% and the lowest measured viability); higher = less toxic
Calu-3 [12] = assay: as above
Caco-2 [13] = assay: as above
U2OS [14] = assay: as above
Vero E6 [15] = assay: as above

| Compound | cell viability (HepG2 [1]; 1 nM) | cell viability (HepG2 [1]; 10 nM) | cell viability (HepG2 [1]; 100 nM) | cell viability (HepG2 [1]; 1000 nM) | cell viability (HepG2 [1]; 10000 nM) | cell viability (Calu-3 [2]; 1 nM) | cell viability (Calu-3 [2]; 10 nM) | cell viability (Calu-3 [2]; 100 nM) | cell viability (Calu-3 [2]; 1000 nM) | cell viability (Calu-3 [2]; 10000 nM) | cell viability (Caco-2 [3]; 1 nM) | cell viability (Caco-2 [3]; 10 nM) | cell viability (Caco-2 [3]; 100 nM) | cell viability (Caco-2 [3]; 1000 nM) | cell viability (Caco-2 [3]; 10000 nM) | cell viability (U2OS [4]; 1 nM) | cell viability (U2OS [4]; 10 nM) | cell viability (U2OS [4]; 100 nM) | cell viability (U2OS [4]; 1000 nM) | cell viability (U2OS [4]; 10000 nM) | cell viability (Vero E6 [5]; 1 nM) | cell viability (Vero E6 [5]; 10 nM) | cell viability (Vero E6 [5]; 100 nM) | cell viability (Vero E6 [5]; 1000 nM) | cell viability (Vero E6 [5]; 10000 nM) | drug sensitivity score (HepG2 [6]) | drug sensitivity score (Calu-3 [7]) | drug sensitivity score (Caco-2 [8]) | drug sensitivity score (U2OS [9]) | drug sensitivity score (Vero E6 [10]) | relative viability EC50 (HepG2 [11]) | relative viability EC50 (Calu-3 [12]) | relative viability EC50 (Caco-2 [13]) | relative viability EC50 (U2OS [14]) | relative viability EC50 (Vero E6 [15]) |
| --- | --- | --- | --- | --- | --- | --- | --- | --- | --- | --- | --- | --- | --- | --- | --- | --- | --- | --- | --- | --- | --- | --- | --- | --- | --- | --- | --- | --- | --- | --- | --- | --- | --- | --- | --- |
| NCC(CC(=O)O)c1ccc(Cl)cc1 (stereo not given) [baclofen] | 101 ± 2.9% | 104 ± 9.8% | 106.2 ± 0.99% | 102 ± 7.6% | 99.8 ± 1.3% | 98.9 ± 7.8% | 104 ± 5.4% | 98.6 ± 2% | 94.8 ± 4.7% | 104 ± 4.7% | 98.6 ± 7.2% | 99.5 ± 3.1% | 95 ± 7.8% | 97.5 ± 3.8% | 100 ± 5% | 96.8 ± 1.1% | 101 ± 2.5% | 95.5 ± 2.3% | 101 ± 5.4% | 98.8 ± 8% | 97.75 ± 0.071% | 96.8 ± 1.7% | 99.7 ± 3.2% | 96.8 ± 3.8% | 104 ± 6.9% | 0 | 0 | 0 | 0 | 0 | > 10 µM | > 10 µM | > 10 µM | > 10 µM | > 10 µM |
| CCOC(=O)[C@@](C)(N)Cc1ccc(O)c(O)c1 [methyldopate] | 95.7% | 96.4% | 97.4% | 97.4% | 90.9% | 91.4% | 97.1% | 101% | 102% | 92.5% | 103% | 101% | 100% | 103% | 88.4% | 103% | 98.4% | 101% | 102% | 89.3% | 99.6% | 98.4% | 97.4% | 107% | 97.7% | 0 | 0 | 0 | 0 | 0 | > 10 µM | > 10 µM | > 10 µM | > 10 µM | > 10 µM |
| O=C(O)/C=C1\CCCc2ccccc2[C@H]1O (racemic) [NCS-382] | 108% | 96.5% | 102% | 99.1% | 87.2% | 93.4% | 95.3% | 99.3% | 95.5% | 101% | 98.6% | 99.3% | 91.8% | 97% | 88.7% | 96.7% | 102% | 96% | 102% | 97.2% | 104% | 97.2% | 103% | 99.1% | 101% | 0.1 | 0 | 0 | 0 | 0 | > 10 µM | > 10 µM | > 10 µM | > 10 µM | > 10 µM |
| O=[N+]([O-])c1ncc[nH]1 [azomycin-(2-nitroimidazole)] | 104% | 104% | 102% | 107% | 93.8% | 100% | 102% | 94% | 92.5% | 99.8% | 109% | 104% | 107% | 87% | 108% | 89.5% | 88.7% | 94.9% | 98.6% | 101% | 99.6% | 102% | 101% | 100% | 100% | 0 | 0 | 0 | 0 | 0 | > 10 µM | > 10 µM | > 10 µM | > 10 µM | > 10 µM |
| Cc1ccc(CC2(O)CCN(CCOc3ccc(O)cc3)CC2)cc1 | 100% | 90.4% | 108% | 90.3% | 84.6% | 110% | 96.5% | 91.7% | 95.9% | 96.9% | 103% | 101% | 95.5% | 91.7% | 92.2% | 100% | 96.8% | 97.8% | 97.1% | 99.7% | 103% | 101% | 99.4% | 99.6% | 93.1% | 1 | 0 | 0 | 0 | 0 | > 10 µM | > 10 µM | > 10 µM | > 10 µM | > 10 µM |
| C#Cc1cccc2c1c(C(=O)c1ccc(Cn3c(C)nc4cnccc43)c(F)c1)cn2C(=O)N(C)C [ABT-491] | 102% | 110% | 95.6% | 100% | 91.4% | 97.2% | 102% | 100% | 106% | 106% | 101% | 86.1% | 91.1% | 91.3% | 93.3% | 99.7% | 98.3% | 96.6% | 98.5% | 94.7% | 103% | 97.1% | 97.1% | 98.4% | 95.5% | 0 | 0 | 0 | 0 | 0 | > 10 µM | > 10 µM | > 10 µM | > 10 µM | > 10 µM |
| CC(C)c1ccc(NC(=O)Cn2cnc3c2c(=O)n(C)c(=O)n3C)cc1 | 97.3% | 106% | 93.4% | 112% | 98.5% | 87% | 81.2% | 92.9% | 90% | 94.8% | 100% | 96% | 92.5% | 89.1% | 95.9% | 99.7% | 97.2% | 101% | 100% | 98.2% | 91.6% | 107% | 98.7% | 102% | 101% | 0 | 0 | 0 | 0 | 0 | > 10 µM | > 10 µM | > 10 µM | > 10 µM | > 10 µM |
| CC(=O)Nc1ccc(OC[C@](C)(O)C(=O)Nc2ccc([N+](=O)[O-])c(C(F)(F)F)c2)cc1 [andarine] | 105% | 98.8% | 100% | 103% | 99% | 93.1% | 98.1% | 90.2% | 105% | 90.3% | 97.4% | 98.6% | 87.3% | 93.5% | 99.2% | 97.9% | 102% | 94.8% | 98% | 93.9% | 101% | 104% | 101% | 96.3% | 100% | 0 | 0 | 0 | 0 | 0 | > 10 µM | > 10 µM | > 10 µM | > 10 µM | > 10 µM |
| O=C1C2C=Nc3ccccc3C2=NN1c1ccc(Cl)cc1 (stereo not given) [CGS-9896] | 97.1% | 88.6% | 91% | 94.1% | 102% | 93.7% | 104% | 87.9% | 95.8% | 103% | 103% | 101% | 94.2% | 93% | 82.7% | 95.6% | 100% | 91.1% | 94% | 91.3% | 99.8% | 103% | 92.6% | 97.9% | 95.8% | 0 | 0 | 0.6 | 0 | 0 | > 10 µM | > 10 µM | > 10 µM | > 10 µM | > 10 µM |
| CNC[C@H](O)[C@@H](O)[C@H](O)[C@H](O)CO [meglumine] | 89.7% | 93.5% | 81.5% | 98.1% | 85% | 108% | 95.7% | 99.4% | 88.2% | 97.7% | 92.6% | 76.1% | 95.3% | 104% | 95.1% | 98.3% | 92.8% | 104% | 90.8% | 99% | 88.3% | 91.3% | 93.9% | 99.5% | 96.5% | 0 | 0 | 0 | 0 | 0 | > 10 µM | > 10 µM | > 10 µM | > 10 µM | > 10 µM |
| Cc1c(Cl)cccc1Nc1ccccc1C(=O)O [tolfenamic-acid] | 98.4% | 111% | 106% | 110% | 103% | 98.8% | 96.3% | 92.7% | 92.4% | 101% | 95.7% | 99% | 102% | 96.4% | 107% | 98.9% | 95% | 101% | 101% | 98.8% | 98.1% | 103% | 90.4% | 98.8% | 101% | 0 | 0 | 0 | 0 | 0 | > 10 µM | > 10 µM | > 10 µM | > 10 µM | > 10 µM |
| CN1CCC(=C2c3ccccc3CCn3c(C=O)cnc32)CC1 [alcaftadine] | 92.7% | 97.2% | 103% | 101% | 104% | 99.3% | 99.5% | 100% | 87.4% | 105% | 98.1% | 90.6% | 93.8% | 98.5% | 110% | 108% | 101% | 101% | 97.7% | 99.6% | 89.4% | 99.4% | 87.1% | 91.6% | 107% | 0 | 0 | 0 | 0 | 0 | > 10 µM | > 10 µM | > 10 µM | > 10 µM | > 10 µM |
| O=[N+]([O-])c1cc(Cl)ccc1S(=O)(=O)N1CCN(Cc2ccccc2)CC1 [RN-1747] | 105% | 92.9% | 104% | 86.9% | 104% | 96.4% | 104% | 94.6% | 102% | 106% | 94.3% | 94% | 96.2% | 106% | 99.9% | 94.6% | 100% | 96.2% | 102% | 106% | 99.5% | 92.2% | 93.4% | 96.1% | 102% | 0 | 0 | 0 | 0 | 0 | > 10 µM | > 10 µM | > 10 µM | > 10 µM | > 10 µM |
| O=C(Nc1cc(Cl)cc(Cl)c1O)c1c(O)c(Cl)cc(Cl)c1Cl [oxyclozanide] | 105% | 99.2% | 96.4% | 98% | 101% | 107% | 90.4% | 104% | 88.7% | 103% | 98.4% | 106% | 91.7% | 91.9% | 97.4% | 98.7% | 97.6% | 97.8% | 100% | 97.2% | 95% | 98.6% | 96.2% | 101% | 95.4% | 0 | 0 | 0 | 0 | 0 | > 10 µM | > 10 µM | > 10 µM | > 10 µM | > 10 µM |
| C/C=C/c1cc(OC)c(OC)cc1OC [alpha-asarone] | 91.3% | 107% | 91.9% | 93.3% | 90.3% | 94.6% | 99.8% | 102% | 94% | 105% | 87.7% | 108% | 88.3% | 118% | 93.5% | 97.3% | 101% | 93.9% | 100% | 100% | 109% | 86.1% | 99.8% | 101% | 104% | 0 | 0 | 0 | 0 | 0 | > 10 µM | > 10 µM | > 10 µM | > 10 µM | > 10 µM |
